Measured values reported in patent publication US4826850A, “Quinoline base compound, process for the preparation thereof and anticancer agent containing the same as pharmacologically efficacious component” (Mect Corporation, priority 1986, dated 1989).
Converted amounts (≈) assume the structure as drawn.

Assays:
[1] = acridine derivatives, literature; cited from earlier work
P-388 = assay: Effect in prolonging life of P-388 mice; type: in vivo, mouse; details: CDF1 mice, P-388 i.p., control 100
Protocol: Test Example 2: Effect in Prolonging the Life of Mouse with Cancer, and Acute Toxicity of Drugs
Using P-388 mice with cancer, the pharmacological efficacy of the aforementioned compounds was evaluated by comparing with a control to which no such compound had been added.
Animal Used: CDF1 Mice (6 mice/group)
Number of Incubated Cells: 10^6 cells/mouse
Days at which Drugs Were Administered: Days 1 and 5, or days 1 to 9
Quantities of Drugs Administered: When a drug was administered at days 1 and 5, the maximum dosed quantity was set at LD50 or 400 mg/kg/day; and when a drug was administered at days 1 to 9, the maximum dosed quantity was set at 1/2×LD50 or 200 mg/kg/day. The experiment was conducted with groups of mice being administered the respective drugs at 3 dose levels incuding the maximum level, 1/2 of the maximum level and 1/4 of the maximum level.
When the T/C %, i.e. the ratio of the survival time (days) of a treated group (administered with a certain drug) to the survival time of a control group (administered with no drug), was 120% or more for a synthesized substance and 130% or more for a natural substance, the drug was appraised as effective (P). The survival time of the group administered with no drug is normally about 10 days (median survival time). In the following Table, an indication of "T/C 0%" means that not less than three mice were dead due to toxicity within 5 days.

KB cells = assay: Effect in inhibiting growth of KB-cells (in vitro); type: cell-based; details: Homo sapiens, 72 h, drug added day 1, cells counted day 4, inhibition rate 50%, read-out: Concentration giving 50% growth inhibition (ED50; Inhibition Rate 50%)
Protocol: (1) Effect in Inhibiting Growth of KB-Cells
The KB-cell, one of the cancer-causing tumor cells, was incubated in an in vitro floating incubation system, and the pharmacological effects of the Compounds (4) and (5) were compared with a control to which the compounds had not been added.
KB Cells (derived from a human epidermoid carcinoma of the mouth).
Eagles minimal essential medium (MEM)-10% calf serum.
37° C. in a carbon dioxide gas incubator (5% CO2).
Day 0: The KB cells were diluted to 2×10^4 /ml medium. 3 ml of the thus diluted KB cell suspension was incubated on a 60 mm plastic dish, at 2 dishes per dose level.
Day 1: Each drug was added into each dish so that the drug content in each dish was adjusted, respectively, to 100, 30, 10, 3 and 1 μg/ml.
Day 4: The cells were stripped from the surface of each dish, and the number of cells was counted using a Kohlter's counter.
A substance or drug having an ED50 value of not more than 4 μg/ml for a synthesized product was appraised as an effective substance. Meanwhile, in evaluating the effect of inhibiting growth of KB-cells, the number of surviving cells was counted by a Kohlter's counter, and the counted number was compared to that of the control (without the addition of the Compound (1)) to find the concentration of the drug for inhibiting the growth by 50%, the thus found concentration being estimated as the ED50 value.

Structure (SMILES)	Anticancer effect [1]	Life Prolonging Rate (T/C) (P-388; Dosage 12.5 mg/kg) [%]	Life Prolonging Rate (T/C) (P-388; Dosage 25 mg/kg) [%]	Life Prolonging Rate (T/C) (P-388; Dosage 50 mg/kg) [%]	IC50 (KB cells) [µg/mL]	Life Prolonging Rate (T/C) (P-388; Dosage 100 mg/kg) [%]	Life Prolonging Rate (T/C) (P-388; Dosage 200 mg/kg) [%]	Life Prolonging Rate (T/C) (P-388; Dosage 400 mg/kg, T/C 0% means not less than three mice dead due to toxicity within 5 days) [%]
COc1cc(NS(C)(=O)=O)ccc1Nc1c2ccccc2nc2ccccc12 [amsacrine, N-(4-(9-acridinylamino)-3-methoxyphenyl)-methanesulfoneamide]	most effective derivative	–	–	–	–	–	–	–
COc1cc(NS(C)(=O)=O)ccc1Nc1c2ccccc2nc2c1sc1ccccc12 [Compound 5, N-(4-((benzothieno(3,2-b)quinoline-11-yl)amino)-3-methoxyphenyl)methanesulfoneamide]	–	138	170	170	0.3 (≈ 0.667 µM)	–	–	–
COc1cc(NS(C)(=O)=O)ccc1Nc1c2c(nc3ccccc13)CCCC2 [tetrahydroamsacrine]	reduced anticancer effect	–	–	–	–	–	–	–
COc1cc(NS(C)(=O)=O)ccc1Nc1c2c(nc3ccccc13)-c1ccccc1C2 [Compound 6]	–	166	–	217	< 0.3	240	60	0
COc1cc(NS(C)(=O)=O)ccc1Nc1c2ccccc2nc2c1oc1ccccc12 [Compound 4, N-(4-((benzofuro(3,2-b)quinoline-11yl)amino)-3-methoxyphenyl)methane sulfoneamide]	–	180	195	200	0.3 (≈ 0.692 µM)	–	–	–
